Laboratory results reported in patent US7423030B2, “1-amino-phthalazine derivatives, the preparation and the therapeutic use thereof” (Sanofi-Aventis, priority 2004, dated 2008).
Counter-ions that a name gives are not always drawn.

melting point [°C] | Compound
186 | COc1ccc2c(CO)nnc(NC3CCN(Cc4ccc5ccccc5c4)CC3)c2c1 (as salt: HCl) (hydrate or solvate) [Compound 148, 4-Hydroxymethyl-7-methoxy-N-[1-(naphthalen-2-ylmethyl)piperidin-4-yl]phthalazin-1-amine]
121 | COc1ccc2c(-c3ccccc3)nnc(NC3CCN(Cc4ccc5ccccc5c4)CC3)c2c1 (as salt: salt) (hydrate or solvate) [Compound 1, 7-methoxy-N-[1-(naphthalen-2-ylmethyl)piperidin-4-yl]-4-phenylphthalazin-1-amine]
158 | COc1ccc2c(-c3ccccc3OC)nnc(NC3CCN(Cc4ccc5ccccc5c4)CC3)c2c1 (as salt: salt) (hydrate or solvate) [Compound 2, 7-methoxy-4-(2-methoxyphenyl)-N-[1-(naphthalen-2-ylmethyl)piperidin-4-yl]phthalazin-1-amine]
176 | COc1cccc(-c2nnc(NC3CCN(Cc4ccccc4)CC3)c3cc(OC)ccc23)c1 (as salt: salt) (hydrate or solvate) [Compound 6, N-(1-benzylpiperidin-4-yl)-7-methoxy-4-(3-methoxyphenyl)phthalazin-1-amine]
150 | COc1ccc(-c2nnc(NC3CCN(Cc4ccccc4)CC3)c3cc(OC)ccc23)cc1 (as salt: salt) (hydrate or solvate) [Compound 7, N-(1-benzylpiperidin-4-yl)-7-methoxy-4-(4-methoxyphenyl)phthalazin-1-amine]
115 | COc1ccc2c(-c3cccs3)nnc(NC3CCN(Cc4ccccc4)CC3)c2c1 (as salt: salt) (hydrate or solvate) [Compound 8, N-(1-benzylpiperidin-4-yl)-7-methoxy-4-(thiophen-2-yl)phthalazin-1-amine]
169 | COc1cc(OC)c2cnnc(NC3CCN(Cc4ccccc4)CC3)c2c1 (as salt: salt) (hydrate or solvate) [Compound 13, N-(1-benzylpiperidin-4-yl)-5,7-dimethoxyphthalazin-1-amine]
155 | COc1ccc2c(-c3ccc(C)s3)nnc(NC3CCN(Cc4ccccc4)CC3)c2c1 (as salt: salt) (hydrate or solvate) [Compound 16, N-(1-benzylpiperidin-4-yl)-7-methoxy-4-(5-methylthiophen-2-yl)phthalazin-1-amine]
135 | CCc1nnc(NC2CCN(Cc3ccc4ccccc4c3)CC2)c2cc(OC)ccc12 (as salt: salt) (hydrate or solvate) [Compound 20, 4-Ethyl-7-methoxy-N-[1-(naphthalen-2-ylmethyl)piperidin-4-yl]phthalazin-1-amine]
104 | COc1ccc2c(Cc3ccccc3)nnc(NC3CCN(Cc4ccc5ccccc5c4)CC3)c2c1 (as salt: salt) (hydrate or solvate) [Compound 21, 4-Benzyl-7-methoxy-N-[1-(naphthalen-2-ylmethyl)piperidin-4-yl]phthalazin-1-amine]
176 | COc1ccc(-c2nnc(NC3CCN(Cc4ccc5sccc5c4)CC3)c3cc(OC)ccc23)cc1 (as salt: salt) (hydrate or solvate) [Compound 60, N-[1-(1-benzothien-5-ylmethyl)piperidin-4-yl]-7-methoxy-4-(4-methoxyphenyl)phthalazin-1-amine]
175 | COc1ccc2c(-c3ccc(F)cc3)nnc(NC3CCN(Cc4ccc5ccccc5c4)CC3)c2c1 (as salt: salt) (hydrate or solvate) [Compound 82, 4-(4-Fluorophenyl)-7-methoxy-N-[1-(naphthalen-2-ylmethyl)piperidin-4-yl]phthalazin-1-amine]

The remaining lines, values behind:

Compound | melting point [°C]
COc1ccc2c(COCc3ccccc3)nnc(NC3CCN(Cc4ccc5ccccc5c4)CC3)c2c1.Cl.Cl | 284
COc1ccc(-c2nnc(NC3CCN(Cc4ccc(CO)cc4)CC3)c3cc(OC)ccc23)cc1.Cl.Cl | 139
COc1ccc(-c2nnc(NC3CCN(Cc4ccc(CN)cc4)CC3)c3cc(OC)ccc23)cc1.Cl.Cl.Cl | 203
COc1ccc2cnnc(NC3CCN(Cc4ccc5ccccc5c4)CC3)c2c1 (as salt: HCl) (hydrate or solvate) [Compound 70, 7-methoxy-N-[1-(2-naphthylmethyl)piperidin-4-yl]-phthalazin-1-amine] | 189
COc1ccc(-c2nnc(N[C@H]3CCN(Cc4ccc5ccccc5c4)C3)c3cc(OC)ccc23)cc1 (as salt: HCl) (hydrate or solvate) [Compound 96, 4-(4-Methoxyphenyl)-7-methoxy-N-[(3S)-1-(naphthalen-2-ylmethyl)pyrrolidin-3-yl]phthalazin-1-amine] | 280
COC(=O)c1ccc(CN2CCC(Nc3nnc(-c4ccc(OC)cc4)c4ccc(OC)cc34)CC2)cc1 (as salt: HCl) (hydrate or solvate) [Compound 107, methyl {4-[(4-{[7-methoxy-4-(4-methoxyphenyl)phthalazin-1-yl]amino}piperidin-1-yl)methyl]phenyl}carboxylate] | 241
COc1ccc(-c2nnc(NC3CCN(Cc4ccc(C#N)cc4)CC3)c3cc(OC)ccc23)cc1 (as salt: HCl) (hydrate or solvate) [Compound 108, N-[1-(4-cyanobenzyl)piperidin-4-yl)-7-methoxy-4-(4-methoxyphenyl)phthalazin-1-amine] | 270
COc1ccc(-c2nnc(NC3CCN(Cc4ccc(C(C)=O)cc4)CC3)c3cc(OC)ccc23)cc1 (as salt: HCl) (hydrate or solvate) [Compound 121, 1-{4-[(4-{[7-methoxy-4-(4-methoxyphenyl)phthalazin-1-yl]amino}piperidin-1-yl)methyl]phenyl}ethanone] | 241
COc1ccc(-c2nnc(NC3CCN(Cc4ccc(C)cc4)CC3)c3cc(OC)ccc23)cc1 (as salt: HCl) [Compound 75, 7-methoxy-4-(4-methoxyphenyl)-N-[1-(4-methylbenzyl)piperidin-4-yl]phthalazin-1-amine] | 148
COc1ccc(-c2nnc(NC3CC4CCC(C3)N4Cc3ccc4ccccc4c3)c3cc(OC)ccc23)cc1 (stereo not shown) (as salt: salt) (hydrate or solvate) | 176
COc1ccc(-c2nnc(NC3CCN(Cc4ccc5ccccc5c4)CC3)c3cc(OC)ccc23)cc1 (as salt: salt) (hydrate or solvate) [Compound 3, 7-methoxy-4-(4-methoxyphenyl)-N-[1-(naphthalen-2-ylmethyl)piperidin-4-yl]phthalazin-1-amine] | 195
COc1cccc(-c2nnc(NC3CCN(Cc4ccc5ccccc5c4)CC3)c3cc(OC)ccc23)c1 (as salt: salt) (hydrate or solvate) [Compound 5, 7-methoxy-4-(3-methoxyphenyl)-N-[1-(naphthalen-2-ylmethyl)piperidin-4-yl]phthalazin-1-amine] | 154
COc1ccc(-c2nnc(NC3CCN(Cc4ccc5ccccc5c4)CC3)c3cc(C)ccc23)cc1 (as salt: salt) (hydrate or solvate) [Compound 9, 4-(4-methoxyphenyl)-7-methyl-N-[1-(naphthalen-2-ylmethyl)piperidin-4-yl]phthalazin-1-amine] | 198
COc1ccc2c(-c3ccc(OC)c(OC)c3)nnc(NC3CCN(Cc4ccc5ccccc5c4)CC3)c2c1 (as salt: salt) (hydrate or solvate) [Compound 10, 4-(3,4-Dimethoxyphenyl)-7-methoxy-N-[1-(naphthalen-2-ylmethyl)piperidin-4-yl]phthalazin-1-amine] | 131
COc1cc(OC)c2cnnc(NC3CCN(Cc4ccc5ccccc5c4)CC3)c2c1 (as salt: salt) (hydrate or solvate) [Compound 14, 5,7-dimethoxy-N-[1-(naphthalen-2-ylmethyl)piperidin-4-yl]phthalazin-1-amine] | 206
COc1ccc(-c2nnc(NC3CCN(Cc4cccc(C#N)c4)CC3)c3cc(OC)ccc23)cc1 (as salt: salt) (hydrate or solvate) [Compound 18, N-[1-(3-cyanophenylmethyl)-piperidin-4-yl]-7-methoxy-4-(4-methoxyphenyl)phthalazin-1-amine] | 115
CCc1nnc(NC2CCN(Cc3ccc4ccccc4c3)CC2)c2cc(OC)cc(OC)c12 (as salt: salt) (hydrate or solvate) [Compound 23, 5,7-Dimethoxy-4-ethyl-N-[1-(naphthalen-2-ylmethyl)piperidin-4-yl]phthalazin-1-amine] | 250
COc1ccc(-c2nnc(NC3CCN(Cc4ccc5occc5c4)CC3)c3cc(OC)ccc23)cc1 (as salt: salt) (hydrate or solvate) [Compound 26, N-[1-(1-benzofuran-5-ylmethyl)piperidin-4-yl]-7-methoxy-4-(4-methoxyphenyl)phthalazin-1-amine] | 160
COc1ccc(-c2nnc(NC3CCN(Cc4ccc(C)c(C)c4)CC3)c3cc(OC)ccc23)cc1 (as salt: salt) (hydrate or solvate) [Compound 29, N-[1-(3,4-dimethylbenzyl)piperidin-4-yl]-7-methoxy-4-(4-methoxyphenyl)phthalazin-1-amine] | 130
COc1ccc(-c2nnc(NC3CCN(Cc4ccc5ncsc5c4)CC3)c3cc(OC)ccc23)cc1 (as salt: salt) (hydrate or solvate) [Compound 59, N-[1-(1,3-benzothiazol-6-ylmethyl)piperidin-4-yl]-7-methoxy-4-(4-methoxyphenyl)phthalazin-1-amine] | 180
COc1ccc(-c2nnc(NC3CCN(Cc4c[nH]c5ccccc45)CC3)c3cc(OC)ccc23)cc1 (as salt: salt) (hydrate or solvate) [Compound 65, N-[1-(1H-indol-3-ylmethyl)piperidin-4-yl]-7-methoxy-4-(4-methoxyphenyl)phthalazin-1-amine] | 257
CCCCc1nnc(NC2CCN(Cc3ccc4ccccc4c3)CC2)c2cc(OC)ccc12 (as salt: salt) (hydrate or solvate) [Compound 67, 4-Butyl-7-methoxy-N-[1-(naphthalen-2-ylmethyl)piperidin-4-yl]phthalazin-1-amine] | 101
